Key:
[1] = system: Brassica napus hypocotyl explants (AG019, altered oil profiles); assay: Brassica napus transformation, NAA in callusing and recovery media; type: cell-based; conditions: NAA added to callusing and recovery media; Brassica napus with altered oil profiles
Description: After co-cultivation, the cells are […] to callusing and recovery media for 7 days. Explants are then placed on selection medium containing macro and micro nutrients, vitamins and growth regulators which induce shoot formation. The selection medium also contains a bacteriocide, for example carbenicillin. Preferably, it also contains a selection agent. The cells are grown on the selection medium until shoots (putative transformants) develop. […] To enhance regeneration, any shoots which develop are transferred on a regular basis to fresh selection media. Plantlets are placed on a shoot elongation media and finally a rooting media.
A single colony of Agrobacterium containing the plant transformation vector construct is transferred to AB minimal medium (Watson et al., 1975) for 48 hr at 28° C., which gives at approx. density of 6×10^8 cfu/mL. Hypocotyls are harvested from the germinated seeds and transferred to the Pre-Culture medium (MMOM, 3% (w/v) sucrose, 5.0 mg/L BAP, 0.7% (w/v) agar, and NAA 0.1 mg/L, pH 5.8) and incubated for 3 days under the TC conditions described above. Hypocotyl explants are then transferred from the Pre-Culture medium to the AB minimal medium containing the Agrobacterium strain of interest and incubated for at least 2 min. […]

Non-transformed plants [2] = assay: NAM spray of non-transformed tobacco plants; type: in vivo; conditions: 200 ug/mL NAM with 0.1% Tween 20, sprayed to runoff
From the text: Transformed tobacco plants containing the pJH 121 construct described above are recovered and tested using standard analysis to determine the presence of the inserted vector. […] Plants were sprayed to runoff using a pressurized sprayer. […] Non-transformed plants are unaffected by the treatment.

[3] = system: Transformed Brassica napus plants containing the construct pJH 121; assay: NAM spray of transformed Brassica napus plants containing pJH121; type: in vivo; conditions: 200 ug/mL NAM with 0.1% Tween 20, sprayed to runoff at three-four leaf stage; 25 days after spraying
From the text: (§1) Transformed Brassica napus plants containing the construct pJH 121 described above are recovered and tested using standard analysis to determine the presence of the inserted vector. […] Plants were sprayed to runoff using a pressurized sprayer.

non-transgenic varieties = assay: NAM spray of non-transgenic Brassica napus varieties; type: in vivo; conditions: 200 ug/mL NAM with 0.1% Tween 20, sprayed to runoff; 25 days after spraying
From the text: as §1

[4] = system: Transformed Brassica napus plants containing the construct pJH 125 (35S oncogene 2); assay: NAM spray of transformed Brassica napus plants containing pJH125; type: in vivo; conditions: 200 ug/mL NAM with 0.1% Tween 20, sprayed to runoff
From the text: (§2) Transformed Brassica napus plants containing the construct pJH 125 (35S oncogene 2) described above are recovered and tested using standard analysis to determine the presence of the inserted vector. […] Plants were sprayed to runoff using a pressurized sprayer. […] Non-transformed plants are unaffected by the treatment.

Non-transformed plants [5] = assay: NAM spray of non-transformed Brassica napus plants; type: in vivo; conditions: 200 ug/mL NAM with 0.1% Tween 20, sprayed to runoff
From the text: as §2

[6] = system: plants from JH 2984 and JH 2973 transformation events (pJH 125); assay: NAM as scorable marker agent in segregating populations JH 2984 and JH 2973; type: in vivo, Brassica napus; conditions: NAM 1 mg/mL at the 2-3 leaf stage; 24 hours after application
From the text: In this example, 20 plants from JH 2984 and JH 2973 transformation events were planted. These transgenic varieties were segregating 3:1 for the inserted plant transformation vector pJH 125. […] These plants were subjected to PCR analysis for the presence of the transformation vector.

[7] = system: Transgenic seedlings from JH2973 and JH2984 (pJH 125); assay: In vitro seed germination in the presence of NAM and NPA, transgenic seedlings; type: in vivo, Brassica napus
From the text: (§3) Oncogene 2 can be used as a selectable marker in seed germination and embryo rescue in vitro assays, allowing for an even earlier determination of the presence of the transformation vector in segregating populations. […] The in vitro assay reduces the time and physical space (e.g. number of plants in growth chambers or under cultivation) required to identify homozygous transgenic lines, and the embryo rescue method allows selection and recovery of transformed seedlings which reduces generation to generation cycle time a breeding program.
(§4) Non-transformed segregants grew normally. […] The presence of the transformation vector in these plants was confirmed as above.

[8] = system: Non-transformed segregants; assay: In vitro seed germination in the presence of NAM and NPA, non-transformed segregants; type: in vivo, Brassica napus; conditions: germinated in vitro in the presence of NAM and the auxin transport inhibitor NPA
From the text: as §3, §4

[9] = system: transgenic plants expressing the oncogene 2; assay: Spray screen for transgenic plants expressing the oncogene 2; type: in vivo
From the text: A simple procedure is provided to screen for transgenic plants expressing the oncogene 2. […] Plants which have been affected are selected.

[10] = system: Plants without the oncogene 2; assay: Spray screen, plants without the oncogene 2; type: in vivo; conditions: sprayed with formulated mixture
Description: A simple procedure is provided to screen for transgenic plants expressing the oncogene 2. Plant populations are sprayed with the formulated mixture of napthalene acetamide. […] Plants without the oncogene 2 are unaffected. Plants which have been affected are selected. These recover within 72 hours and continue to grow and set seed. This phenotypic response is transmitted to subsequent generations.

| SMILES | formation of transgenic shoots [1] | effect of treatment on non-transformed plants (Non-transformed plants [2]) | growth of transgenic plants [3] | growth of non-transgenic varieties (non-transgenic varieties) | visual phenotype of transformed plants ([4]; 2 days after spraying) | visual phenotype of transformed plants ([4]; within 5 days) | effect of treatment on non-transformed plants (Non-transformed plants [5]) | visual phenotype of putative transgenics (confirmed by PCR) [6] | recovery of putative transgenic seedlings ([7]; after transfer to non-selective media) | phenotype of transgenic seedlings ([7]; germinated in vitro in the presence of NAM and the auxin transport inhibitor NPA) | growth of non-transformed segregants [8] | visual phenotype of transgenic plants ([9]; sprayed with formulated mixture, within 24 hours) | time to recovery of affected plants ([9]; sub-lethal spray, plants continue to grow and set seed) [h] | effect on plants without the oncogene 2 [10] |
| --- | --- | --- | --- | --- | --- | --- | --- | --- | --- | --- | --- | --- | --- | --- |
| O=C(O)Cc1cccc2ccccc12 [NAA, napthalene acetic acid] | greatly increases the formation of transgenic shoots | – | – | – | – | – | – | – | – | – | – | – | – | – |
| NC(=O)Cc1cccc2ccccc12 [NAM, napthalene acetamide] | – | unaffected | remained stunted in growth | grew normally and flowered | leaves are drooping and the leaf margins curling | leaves are twisted and the plant shows typical auxin toxicity | unaffected | twisted leaves | recovered and grew normally | stunted seedlings, small cotyledons, stunted and swollen roots and callus at the root/shoot junction | grew normally | epinasty and obvious visual phenotypic changes | ≤ 72 | unaffected |

— patent US6753459B2, “Transgenic plants and methods for production thereof” (National Research Council of Canada, priority 1998, dated 2004)
